Reference: ChEMBL document CHEMBL2046268 (Eur J Med Chem, 2012)
Activity calls are given as the source filed them. The rule behind the calls is not given here.

What was measured:
HeLa [1] = assay: Cytotoxicity against human HeLa cells assessed as cell viability after 48 hrs by MTT assay; type: functional, cell-based
A549 [2] = assay: Cytotoxicity against human A549 cells assessed as cell viability after 48 hrs by MTT assay; type: functional, cell-based; conditions: A549, 48 h
HeLa [3] = assay: Cytotoxicity against human HeLa cells assessed as cell viability after 72 hrs by MTT assay; type: functional, cell-based
A549 [4] = assay: Cytotoxicity against human A549 cells assessed as cell viability after 72 hrs by MTT assay; type: functional, cell-based; conditions: A549, 72 h
MCF7 [5] = assay: Cytotoxicity against human MCF7 cells assessed as cell viability after 48 hrs by MTT assay; type: functional, cell-based; conditions: MCF7, 48 h
MCF7 [6] = assay: Cytotoxicity against human MCF7 cells assessed as cell viability after 72 hrs by MTT assay; type: functional, cell-based; conditions: MCF7, 72 h
Vero [7] = assay: Cytotoxicity against african green monkey Vero cells assessed as cell viability after 48 hrs by MTT assay; type: cell-based; conditions: Chlorocebus sabaeus
Vero [8] = assay: Cytotoxicity against african green monkey Vero cells assessed as cell viability after 72 hrs by MTT assay; type: cell-based; conditions: Chlorocebus sabaeus
Vero [9] = assay: Selectivity index, ratio of IC50 for african green monkey Vero cells to IC50 for human MCF7 cells after 48 hrs
HeLa [10] = assay: Induction of apoptosis in human HeLa cells assessed as DNA fragmentation at 16 uM after 48 hrs by agarose gel electrophoresis; type: functional, cell-based
HeLa [11] = assay: Induction of apoptosis in human HeLa cells assessed as DNA fragmentation at 16 to 32 uM after 24 hrs by agarose gel electrophoresis; type: functional, cell-based
HeLa [12] = assay: Induction of apoptosis in human HeLa cells assessed as DNA fragmentation at 4 to 32 uM after 12 hrs by agarose gel electrophoresis; type: functional, cell-based
HeLa [13] = assay: Induction of apoptosis in human HeLa cells assessed as chromatin condensation at 8 uM after 12 hrs using Hoechst 33342 staining by fluorescence microscopic analysis; type: functional, cell-based
HeLa [14] = assay: Induction of apoptosis in human HeLa cells assessed as formation of apoptotic bodies at 8 uM after 12 hrs using Hoechst 33342 staining by fluorescence microscopic analysis; type: functional, cell-based
HeLa [15] = assay: Induction of apoptosis in human HeLa cells assessed as increase in sub-G1 DNA content at 24 uM after 12 hrs using Propidium iodide staining by flow cytometry; type: functional, cell-based
Caspase-3 (Homo sapiens) [16] = molecular target: T1, Caspase-3 (Homo sapiens) (UniProt P42574); assay: Induction of caspase 3 activation in human HeLa cells using Ac-DEVD-pNA after 4 hrs by Bradford assay; type: cell-based
T1 sequence (whole entry): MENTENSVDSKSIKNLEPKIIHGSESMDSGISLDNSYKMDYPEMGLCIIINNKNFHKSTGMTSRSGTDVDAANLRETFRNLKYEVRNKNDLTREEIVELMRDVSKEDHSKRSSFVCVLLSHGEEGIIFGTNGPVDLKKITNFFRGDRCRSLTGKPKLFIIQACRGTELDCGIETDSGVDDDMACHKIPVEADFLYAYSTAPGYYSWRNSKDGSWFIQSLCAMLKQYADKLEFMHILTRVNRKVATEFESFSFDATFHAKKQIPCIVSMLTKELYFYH

Caspase-3 (Homo sapiens) [17] = molecular target: T1, Caspase-3 (Homo sapiens); assay: Induction of caspase 3 activation in human HeLa cells using Ac-DEVD-pNA at 4 uM after 4 hrs by Bradford assay; type: cell-based
Caspase-3 (Homo sapiens) [18] = molecular target: T1, Caspase-3 (Homo sapiens); assay: Induction of caspase 3 activation in human HeLa cells using Ac-DEVD-pNA at 8 uM after 4 hrs by Bradford assay; type: cell-based
Caspase-3 (Homo sapiens) [19] = molecular target: T1, Caspase-3 (Homo sapiens); assay: Induction of caspase 3 activation in human HeLa cells using Ac-DEVD-pNA at 24 uM after 8 hrs by Bradford assay; type: cell-based
HeLa [20] = assay: Induction of apoptosis in human HeLa cells assessed as phosphatidylserine externalization at 2 to 16 uM using annexin/PI staining by fluorescence microscopy; type: functional, cell-based; conditions: TDE = time-dependent effect
HeLa [21] = assay: Induction of apoptosis in human HeLa cells assessed as necrotic cells at 2 to 16 uM using annexin/PI staining by fluorescence microscopy; type: functional, cell-based; conditions: TDE = time-dependent effect
HeLa [22] = assay: Induction of apoptosis in human HeLa cells assessed as early apoptotic cells at 2 to 4 uM up to 4 hrs using annexin/PI staining by fluorescence microscopy; type: functional, cell-based
HeLa [23] = assay: Induction of apoptosis in human HeLa cells assessed as phosphatidylserine externalization after 0.5 to 4 hrs using annexin/PI staining by fluorescence microscopy; type: functional, cell-based
HeLa [24] = assay: Induction of apoptosis in human HeLa cells assessed as necrotic cells after 0.5 to 4 hrs using annexin/PI staining by fluorescence microscopy; type: functional, cell-based

Row | SMILES | IC50 (HeLa [1]) [µM] | IC50 (A549 [2]) [µM] | IC50 (HeLa [3]) [µM] | IC50 (A549 [4]) [µM] | IC50 (MCF7 [5]) [µM] | IC50 (MCF7 [6]) [µM] | IC50 (Vero [7]) [µM] | IC50 (Vero [8]) [µM] | Ratio IC50 (Vero [9]) | other results
1 | CC1=C(CO)C(=O)O[C@@H]([C@@H](C)[C@H]2CC[C@H]3[C@@H]4C[C@H]5O[C@]56C(=O)C=CC(=O)[C@]6(C)[C@H]4CC[C@]23C)C1 | 18.4 | 25.4 | 15.2 | 12.8 | 3.2 | 2.1 | 7.7 | 1.5 | 2.4 | –
2 | CC1=C(CO)C(=O)O[C@@H]([C@@H](C)[C@H]2CC[C@H]3[C@@H]4C[C@H](Cl)[C@]5(O)[C@@H](O)C=CC(=O)[C@]5(C)[C@H]4CC[C@]23C)C1 | 13.4 | 14.7 | 12.1 | 8.6 | 7.5 | 1.3 | 14.8 | 7.8 | 2 | –
3 | CC1=C(CO)C(=O)O[C@@H]([C@@H](C)[C@H]2CC[C@H]3[C@@H]4C[C@H]5O[C@]56[C@@H](O)C=CC(=O)[C@]6(C)[C@H]4CC[C@]23C)C1 [WITHAFERIN A] | 3 | 6.6 | 2.3 | 1.5 | 3.6 | 0.6 | 1.3 | 1.7 | <1 | Activity (HeLa [10]): inactive; Activity (HeLa [11]): inactive; Activity (HeLa [12]): inactive; Activity (HeLa [13]): Active; Activity (HeLa [14]): Active; Activity (HeLa [15]): Active; Activity (Caspase-3 (Homo sapiens) [16]): Dose-dependent effect; Activity (Caspase-3 (Homo sapiens) [17]): inactive; Activity (Caspase-3 (Homo sapiens) [18]): inactive; Activity (Caspase-3 (Homo sapiens) [19]): Active; Activity (HeLa [20]): tde; Activity (HeLa [21]): tde; Activity (HeLa [22]): Active; Activity (HeLa [23]): Dose-dependent effect; Activity (HeLa [24]): Dose-dependent effect
4 | CC(=O)OCC1=C(C)C[C@H]([C@@H](C)[C@H]2CC[C@H]3[C@@H]4C[C@H]5O[C@]56[C@@H](O)C=CC(=O)[C@]6(C)[C@H]4CC[C@]23C)OC1=O | 7.7 | 6.7 | 4.7 | 4.4 | 5.3 | 2 | 11.4 | 8.5 | 2.2 | –
5 | CC1=C(C)C(=O)O[C@@H]([C@@H](C)C2=CC[C@H]3[C@@H]4C[C@H]5O[C@]56[C@@H](O)C=CC(=O)[C@]6(C)[C@H]4CC[C@]23C)C1 | 21.5 | 40 | 8 | 5.5 | 12.6 | 2.2 | 4.7 | 3.1 | <1 | –
6 | CC1=C(CO)C(=O)O[C@@H]([C@@H](C)[C@H]2CC[C@H]3[C@@H]4C[C@H]5O[C@]56[C@@H](O)CCC(=O)[C@]6(C)[C@H]4CC[C@]23C)C1 | 28.9 | 33.5 | 19.3 | 17.2 | 14.4 | 5.4 | 15.5 | 9 | 1.1 | –
7 | CC1=C(C)C(=O)O[C@@H]([C@@H](C)[C@H]2CC[C@H]3[C@@H]4C[C@H]5O[C@]56[C@@H](O)C=CC(=O)[C@]6(C)[C@H]4CC[C@]23C)C1 | 4.6 | 9 | 3.4 | 1.5 | 6.6 | 1.1 | 1.5 | 2.2 | <1 | Activity (HeLa [10]): inactive; Activity (HeLa [11]): inactive; Activity (HeLa [12]): inactive; Activity (HeLa [13]): Active; Activity (HeLa [14]): Active; Activity (HeLa [15]): Active; Activity (Caspase-3 (Homo sapiens) [16]): Dose-dependent effect; Activity (Caspase-3 (Homo sapiens) [17]): inactive; Activity (Caspase-3 (Homo sapiens) [18]): inactive; Activity (HeLa [20]): tde; Activity (HeLa [21]): tde; Activity (HeLa [22]): Active; Activity (HeLa [23]): Dose-dependent effect; Activity (HeLa [24]): Dose-dependent effect
8 | CC1=C(CO)C(=O)O[C@@H]([C@@H](C)[C@H]2CC[C@H]3[C@@H]4C[C@@H](O)[C@]5(C=O)CCC(=O)[C@]5(C)[C@H]4CC[C@]23C)C1 | > 40 | > 40 | > 40 | > 40 | > 40 | > 40 | > 40 | > 40 | – | –
9 | CC1=C(C)C(=O)O[C@@H]([C@@H](C)[C@H]2CC[C@H]3[C@@H]4C[C@@H](O)[C@]5(C=O)CCC(=O)[C@]5(C)[C@H]4CC[C@]23C)C1 | > 40 | > 40 | > 40 | > 40 | > 40 | > 40 | > 40 | > 40 | – | –
